Test results published in ChEMBL document CHEMBL3352691, “Meroterpenoids from the alga-derived fungi Penicillium thomii Maire and Penicillium lividum Westling” (J Nat Prod, 2014).
Where a name gives a salt, the structure may show the parent alone. Calls of active or inactive are those of the source. No cut-off for these calls is given here.

How the values were obtained:
[1] = Inhibition of endo-1,3-beta-D-glucanase in Pseudocardium sachalinensis preincubated for 15 mins by Nelson method
[2] = Inhibition of AP-1 basal transcriptional activity in mouse JB6 Cl41 cells at 6.25 uM after 12 hrs by luciferase reporter gene assay; assay type: functional; conditions: JB6 Cl41, 12 h
MDA-MB-231 = assay: Cytotoxicity against human MDA-MB-231 cells after 2 hrs by MTS assay; assay type: functional, cell-based; conditions: MDA-MB-231, 2 h
[3] = Cytotoxicity against mouse JB6 Cl41 cells after 2 hrs by MTS assay; assay type: cell-based; conditions: JB6 Cl41, 2 h
JB6 Cl41 = assay: Inhibition of AP-1 basal transcriptional activity in mouse JB6 Cl41 cells at non cytotoxic concentration after 12 hrs by luciferase reporter gene assay; assay type: functional, cell-based
[4] = Cytotoxicity against mouse JB6 Cl41 cells assessed as reduction in cell viability up to 100 uM after 2 hrs by MTS assay; assay type: cell-based; conditions: jb6 cl41, 2 h

## COc1c2c(c(C)c3c1C(=O)OC3)O[C@@]1(C)C[C@@H](O)[C@]34O[C@](O)(CC[C@]3(C)[C@H]1C2)OC4(C)C
[1]
  IC50: 250 µM

## COc1c2c(c(C)c3c1C(=O)OC3)O[C@@]1(C)C[C@@H](O)[C@H]3C(C)(C)OC(=O)CC[C@]3(C)[C@H]1C2
[2]
  inhibition at 6.25 µM: 27.6%
MDA-MB-231
  IC50: < 10 µM
[3]
  IC50: < 10 µM
JB6 Cl41
  inhibition: Active
[1]
  IC50: 2 µM
[4]
  Activity: Non-toxic

## C=C(C)[C@@H]1[C@H](O)C[C@]2(C)Oc3c(C)c4c(c(OC)c3C[C@@H]2[C@]1(C)CCC(=O)O)C(=O)OC4
[1]
  IC50: 0.12 µM

## COc1c2c(c(C)c3c1C(=O)OC3)O[C@@]1(C)C[C@@H](O)[C@@H](C(C)(C)O)[C@@](C)(CCC(=O)O)[C@H]1C2
MDA-MB-231
  IC50: < 10 µM
[3]
  IC50: < 10 µM
JB6 Cl41
  inhibition: Active
[1]
  IC50: 1 µM

## CC(CC[C@@H](C)[C@H]1CC[C@H]2[C@@H]3C[C@H](OS(=O)(=O)O)[C@H]4C[C@H](OS(=O)(=O)O)[C@@H](OS(=O)(=O)O)C[C@]4(C)[C@H]3CC[C@]12C)C(C)(C)C (some centres not stated) [HALISTANOL SULFATE]
[1]
  IC50: 130 µM

## COc1c2c(c(C)c3c1C(=O)OC3)O[C@@]1(C)CC[C@H]3C(C)(C)OC(=O)CC[C@]3(C)[C@H]1C2
[2]
  inhibition at 6.25 µM: 36.3%
MDA-MB-231
  IC50: < 10 µM
[3]
  IC50: < 10 µM
JB6 Cl41
  inhibition: Active
[1]
  IC50: 0.01 µM
[4]
  Activity: Non-toxic

## CCCCOC(=O)CC[C@@]1(C)[C@H]2Cc3c(c(C)c4c(c3OC)C(=O)OC4)O[C@@]2(C)C[C@@H](O)[C@H]1C(C)(C)O
[2]
  inhibition at 6.25 µM: 36.1%
MDA-MB-231
  IC50: < 10 µM
[3]
  IC50: < 10 µM
JB6 Cl41
  inhibition: Active
[1]
  IC50: 0.2 µM
[4]
  Activity: Non-toxic

## COc1c2c(c(C)c3c1C(=O)OC3)O[C@@]1(C)CC[C@@H](C(C)(C)O)[C@@](C)(CCC(=O)O)[C@H]1C2
[1]
  IC50: 0.01 µM

## C=C(C)[C@@H]1CC[C@]2(C)Oc3c(C)c4c(c(OC)c3C[C@@H]2[C@]1(C)CCC(=O)O)C(=O)OC4
MDA-MB-231
  IC50: < 10 µM
[3]
  IC50: < 10 µM
[1]
  IC50: 1000 µM

## CCCCOC(=O)CC[C@@]1(C)[C@H]2Cc3c(c(C)c4c(c3OC)C(=O)OC4)O[C@@]2(C)CC[C@H]1C(C)(C)O
[2]
  inhibition at 6.25 µM: 34%
[1]
  IC50: 0.1 µM
[4]
  Activity: Non-toxic
